Literature values as cited in patent US12194065B2, “Methods and compositions to enhance metabolic detoxification systems” (Nature's Sunshine Products, Inc., priority 2017, dated 2025).

Assays:
eNOS = eNOS (Homo sapiens, UniProt P29474)
[1] = acute supplementation of 6 g, over 120 minutes, healthy individuals with normal plasma ADMA
[2] = once produced through NOS

Chain of eNOS (P29474 2-1203): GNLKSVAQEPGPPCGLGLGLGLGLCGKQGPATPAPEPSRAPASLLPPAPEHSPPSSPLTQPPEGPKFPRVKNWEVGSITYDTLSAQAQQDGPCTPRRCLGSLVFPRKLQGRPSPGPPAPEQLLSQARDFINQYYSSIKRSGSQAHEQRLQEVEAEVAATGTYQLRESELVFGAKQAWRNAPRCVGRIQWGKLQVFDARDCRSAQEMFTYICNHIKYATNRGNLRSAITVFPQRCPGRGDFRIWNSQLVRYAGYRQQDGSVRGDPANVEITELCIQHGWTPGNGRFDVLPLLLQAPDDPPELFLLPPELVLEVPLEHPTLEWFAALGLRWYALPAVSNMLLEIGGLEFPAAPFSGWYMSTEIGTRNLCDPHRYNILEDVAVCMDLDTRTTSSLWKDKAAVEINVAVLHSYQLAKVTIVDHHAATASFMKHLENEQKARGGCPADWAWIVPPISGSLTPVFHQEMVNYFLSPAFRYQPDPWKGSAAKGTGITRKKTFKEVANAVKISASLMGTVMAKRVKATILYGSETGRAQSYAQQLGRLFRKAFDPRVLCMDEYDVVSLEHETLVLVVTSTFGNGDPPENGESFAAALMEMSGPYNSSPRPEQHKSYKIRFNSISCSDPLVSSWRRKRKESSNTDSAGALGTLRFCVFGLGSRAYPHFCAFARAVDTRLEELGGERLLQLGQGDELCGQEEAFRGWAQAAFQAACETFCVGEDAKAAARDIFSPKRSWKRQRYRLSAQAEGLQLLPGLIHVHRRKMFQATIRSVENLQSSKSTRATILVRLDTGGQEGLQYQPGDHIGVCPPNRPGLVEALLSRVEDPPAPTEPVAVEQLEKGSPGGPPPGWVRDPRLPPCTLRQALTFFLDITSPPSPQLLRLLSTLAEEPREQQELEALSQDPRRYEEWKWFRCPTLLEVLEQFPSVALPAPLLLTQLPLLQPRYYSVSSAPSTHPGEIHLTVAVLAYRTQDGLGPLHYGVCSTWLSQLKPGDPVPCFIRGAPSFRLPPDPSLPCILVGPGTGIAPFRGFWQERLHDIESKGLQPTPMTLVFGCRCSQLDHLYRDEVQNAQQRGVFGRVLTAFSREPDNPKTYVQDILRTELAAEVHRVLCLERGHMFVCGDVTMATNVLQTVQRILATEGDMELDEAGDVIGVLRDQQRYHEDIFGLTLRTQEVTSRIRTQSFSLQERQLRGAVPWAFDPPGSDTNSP

SMILES | concentration saturating eNOS (eNOS) | plasma concentration of NOx [1] | half-life [2]
N=C(N)NCCC[C@H](N)C(=O)O [L-arginine] | approximately 3 μmol arginine/L | does not increase | 
[N]=O [NO, Nitric oxide] |  |  | approximately 1 second
